Experimental data taken from ChEMBL document CHEMBL4190241, “Isolation of Premyrsinane, Myrsinane, and Tigliane Diterpenoids from Euphorbia pithyusa Using a Chikungunya Virus Cell-Based Assay and Analogue Annotation by Molecular Networking” (J Nat Prod, 2017).

Key:
[1] = system: Chikungunya virus; test: Antiviral activity against Chikungunya virus Indian ocean strain 899 infected in African green monkey Vero A cells assessed as reduction in viral-induced cytopathic effect after 6 to 7 days by MTS/PMS assay; format: functional, organism-based; details: Indian ocean 899, Vero
[2] = Selectivity index, ratio of CC50 for African green monkey Vero A cells to EC50 for Chikungunya virus Indian ocean strain 899 infected in African green monkey Vero A cells; format: toxicity; details: read-out: Ratio CC50/EC50
[3] = Cytotoxicity against African green monkey Vero A cells assessed as reduction in cell viability after 6 to 7 days by MTS assay; format: cell-based; details: chlorocebus sabaeus

| Compound | EC50 [1] [µM] | selectivity ratio [2] | CC50 [3] [µM] |
| --- | --- | --- | --- |
| C=C(C)C1C=C[C@@H](OC(C)=O)[C@@]23CO[C@@](C)([C@H](OC(=O)c4ccccc4)[C@@]4(O)C[C@H](C)[C@H](OC(=O)CC)[C@@H]4[C@H]2OC(C)=O)[C@H]13 (stereo partly specified) | 84 | 1.9 | 158 |
| CC(=O)OC[C@]12[C@H](OC(=O)c3ccccc3)[C@H]3[C@@H](OC(C)=O)[C@@H](C)C[C@]3(O)C(=O)[C@@](C)(OC(C)=O)[C@@H]1[C@@H]1[C@H](C[C@H]2OC(C)=O)C1(C)C | 78 | 2.2 | 171 |
| CC(=O)OCC1=C[C@H]2[C@@H]3C(C)(C)[C@]3(OC(=O)C(C)C(C)C)C[C@@H](C)[C@]2(O)[C@@H]2C=C(C)C(=O)[C@H]2C1 (stereo partly specified) | 4 | 10.6 | 42.7 |
| CCC(=O)O[C@@H]1[C@@H]2[C@@H](OC(=O)c3ccccc3)[C@]3(COC(C)=O)[C@H](O)C[C@H]4[C@@H]([C@H]3[C@](C)(O)C(=O)[C@@]2(OC(C)=O)C[C@@H]1C)C4(C)C | 11 | 5.8 | 63.5 |
| CCC(=O)O[C@@H]1[C@@H]2[C@@H](OC(=O)c3ccccc3)[C@@]3(COC(C)=O)[C@@H]([C@@H]4[C@H](C[C@H]3OC(C)=O)C4(C)C)[C@](C)(CC(C)=O)C(=O)[C@@]2(O)C[C@@H]1C | > 144 |  |  |
| CCC(=O)O[C@@H]1[C@@H]2[C@@H](OC(=O)c3ccccc3)[C@@]3(COC(C)=O)[C@@H]([C@@H]4[C@H](C[C@H]3OC(C)=O)C4(C)C)[C@](C)(OC(=O)c3cccnc3)C(=O)[C@@]2(O)C[C@@H]1C | > 107 | < 2.4 | > 159 |
| CCC(=O)O[C@@H]1[C@@H]2[C@@H](OC(=O)C(C)CC)[C@@]3(COC(C)=O)[C@@H]([C@@H]4[C@H](C[C@H]3OC(C)=O)C4(C)C)[C@](C)(OC(C)=O)C(=O)[C@@]2(O)C[C@@H]1C (stereo partly specified) | 107 | 2.2 | 153 |
| CC(=O)OC[C@]12[C@H](OC(=O)c3ccccc3)[C@H]3[C@@H](OC(C)=O)[C@@H](C)C[C@]3(OC(C)=O)C(=O)[C@@](C)(O)[C@@H]1[C@@H]1[C@H](C[C@H]2OC(C)=O)C1(C)C | > 152 |  |  |
| CCC(C)C(=O)O[C@@H]1[C@H]2[C@@H](OC(C)=O)[C@@H](C)C[C@]2(O)C(=O)[C@@](C)(OC(C)=O)[C@@H]2[C@@H]3[C@H](C[C@@H](OC(C)=O)[C@@]12COC(C)=O)C3(C)C (stereo partly specified) | > 50 | < 5 | > 157 |
| CC(=O)OCC1=C[C@H]2[C@@H]3C(C)(C)[C@]3(OC(=O)C(C)C(C)C)C[C@@H](C)[C@]2(O)[C@@H]2C=C(C)C(=O)[C@@H]2C1 (stereo partly specified) | > 11 |  |  |
| CCN(CC)CCCC(C)Nc1ccnc2cc(Cl)ccc12 (stereo unspecified) [CHLOROQUINE] | 11 |  | 89 |
